Test results from patent publication US20100286285A1, “Pharmaceutical composition comprising oleaginous ointments and vitamin D or its derivatives in the solubilized state” (GALDERMA RESEARCH & DEVELOPMENT, priority 2005, published 2010).

Assay: Maximum solubility of the active agent in various excipients
Assay type: physicochemical

SMILES: CCCc1cc(C(O)(CC)CC)ccc1-c1cc(OCc2ccc(CO)c(CO)c2)ccc1CC [Active agent, {4-[6-ethyl-4′-(1-ethyl-1-hydroxypropyl)-2′-propylbiphenyl-3-yloxymethyl]-2-hydroxy-methylphenyl}methanol]
- Sol max (in Arlamol E): 1.033 % w/w
- Sol max (in Cremophor RH40): 3.989 % w/w
- Sol max (in Ethanol 95): >20 % w/w
- Sol max (in Eutanol G): 0.322 % w/w
- Sol max (in IPP): 0.1654 % w/w
- Sol max (in Labrafil M1944CS): 0.936 % w/w
- Sol max (in Miglyol 812): 0.3167 % w/w
- Sol max (in PEG 400): 6.894 % w/w
- Sol max (in Primol 352): 0.0009 % w/w
- Sol max (in Propylene glycol): 2.3351 % w/w
- Sol max (in Sweet almond oil): 0.0932 % w/w
- Sol max (in Transcutol): >20 % w/w
